Measurements: article PMC7767381, “Exploring the Anti-Cancer Mechanism of Novel 3,4′-Substituted Diaryl Guanidinium Derivatives” (Pharmaceuticals, 2020)
“Also recorded” adds a separate entry of the source. Where a name gives a salt, the structure may show the parent alone.

Columns and labels:
HL-60 cells = test: alamarBlue cell viability assay, HL-60; format: cell-based; conditions: Homo sapiens, HL-60, 72 h, alamarBlue, 72 h; read-out: HL-60 IC50 ± SEM
From the text: Cell viability and proliferation assays were used to evaluate the in vitro cytotoxicity of all synthesised compounds in a variety of different cancer cell lines using the alamarBlue® viability assay and the results are presented in Table 1 and Table 2. The sensitivity of cancer cells to drugs can often be compromised by PIK3CA, Ras and BRAF mutations. To determine whether such mutations are critical to the efficacy of our new compounds we tested them in a range of cancerous cell lines expressing different mutations. Firstly, we used the HL-60 (human promyelocytic leukaemia, NRas mutated) cell line for general cytotoxicity screening of all compounds. […] Lastly, toxicity against MCF-10A, which is a non-tumorigenic epithelial cell line, was also assessed for one of the most promising compounds (4). The graphs representing the viability results with the HL-60, MCF-7, HeLa, HCT-116, and HKH-2 cancer cell lines for compound 1 and derivatives 2, 3, and 4 are shown in Figures S7–S10 (ESI).
Cells were counted and seeded in 96-well plates at a density of 2 × 10^5 cells/mL for HL-60, 2.5 × 10^4 cells/mL for MCF-7, MCF10A and HeLa, 1 × 10^5 cells/mL for HCT116 and HKH-2, all of them in their respective media. The 96-well plates were then treated with a 1:100 dilution of stock concentrations of drugs or EtOH (1% v/v)/DMSO (0.1% v/v) as vehicle control in triplicate. Three blank wells containing 200 µL RPMI with no cells were also set-up as blanks. After a 72 h incubation, 20 µL of alamarBlue was added to each well. The plates were incubated in darkness at 37 °C for 4–5 h using a Molecular Devices microplate reader, the fluorescence (F) was then read at an excitation wavelength of 544 nm and an emission wavelength of 590 nm. Cell viability was then determined by subtracting the mean blank fluorescence (Fb) from the treated sample fluorescence (Fs) and expressing this as a percentage of the fluorescence of the blanked vehicle control (Fc). […] The results were then plotted as a nonlinear regression, sigmoidal dose-response curves on Prism, from which the IC50 value for each drug was determined. […]
Pharmacy, TCD. It was maintained in Roswell Park Memorial Institute (RPMI) 1640 medium with stable glutamate (GlutaMax I) supplemented with 10% (v/v) fetal bovine serum (FBS), 1% (v/v) penicillin/ streptomycin (pen-strep) and 2 mM L-glutamine. […]
4.4. AlamarBlue ® Cell Viability Assay
Cells were counted and seeded in 96 well plates at a density of 2 × 10^5 cells/mL for HL-60, 2.5× 10^4 cells/mL for MCF-7, MCF10A and HeLa, 1 × 10^5 cells/mL for HCT116 and HKH-2, all of them in their respective media. The 96 well plates were then treated with a 1:100 dilution of stock concentrations of drugs or EtOH (1% v/v)/DMSO (0.1% v/v) as vehicle control in triplicate.
Three blank wells containing 200 µL media with no cells were also set-up as blanks. After a 72 h incubation, 20 µL of AlamarBlue was added to each well. The plates were incubated in darkness at 37 °C for 4-5 h. Using a Molecular Devices microplate reader, the fluorescence (F) was then read at an excitation wavelength of 544 nm and an emission wavelength of 590 nm.
Cell viability was then determined by subtracting the mean blank fluorescence (Fb) from the treated sample fluorescence (Fs) and expressing this as a percentage of the fluorescence of the blanked vehicle control (Fc). […] The results were […]
then plotted as a nonlinear regression, sigmoidal dose-response curves on Prism, from which the IC50 value for each drug was determined.
Fs − Fb x 100 = % Cell Viability
60 cell line in a dose-dependent manner.
(1 picture or pasted object on this page, not shown here)

[1] = system: ERK phosphorylation (MAPK/ERK pathway); test: Western immunoblot of ERK phosphorylation in HL-60 extracts; format: cell-based, human; conditions: HL-60, 5 µM, 16 h
Protocol: Thus, using Western immunoblot analysis of HL-60 extracts, we investigated the expression and phosphorylation levels of ERK (as an indication of ERK activation), which is the downstream effector of the Ras/BRAF signalling pathway (Figure 6).
HL60s were seeded in T25 flasks at 50 × 10^4 cells/mL and cells were treated with either vehicle [0.5% EtOH (v/v)], 1–4, 9 or 52 (5 µM), as well as 1 (10 µM as reported). After 16 h, cells were collected and washed with PBS. Cell pellets were re-suspended in cold cell lysis buffer (radio-immunoprecipitation assay buffer) supplemented with 1% phosphatase inhibitor cocktail 2 and 3 (Sigma) and 10% protease inhibitor (Roche). Cells were lysed for 30 min on ice. Protein concentration was then determined by BCA assay. Lysates were boiled with Laemmli sample buffer [Tris-HCL 50 mM (pH 6.7), glycerol 10% (w/v), sodium dodecyl sulphate 2% (w/v), bromophenol blue 0.02% (w/v)] containing DTT […] for 10 min at 90 °C. Moreover, 20 µg of lysates were resolved by sodium dodecyl sulphate polyacrylamide gel electrophoresis (SDS-PAGE) and transferred onto PVDF transfer membrane (EMD Millipore). Membranes were blocked with 5% non-fat milk and probed with primary antibodies for ERK and phospho-ERK (Cell Signalling). Anti-GAPDH was used as a loading control (Calbiochem).
Figure 6 Western immunoblot of HL-60 cell extracts following incubation with compounds 2, 3, 4, 9, 52 and 1 (as a control). HL60 cells were seeded at 2 × 10^5 cells/mL and were treated with either vehicle [0.5% EtOH (v/v)], compounds 52, 2, 9, 3 and 4 (5 µM) or compound 1 (5 and (*) 10 µM, as in reference) for 16 h. Cells were lysed and equal amounts of protein were loaded and separated on 15% SDS-PAGE gels, transferred to PVDF membrane and probed with antibodies against total and phosphorylated ERK. Anti-GAPDH was used as a loading control. Results are representative of 2 independent experiments.
HL-60 cells were seeded in T25 flasks at 50 x10^4 cells/mL and treated with either vehicle [0.5% […]
After 16 hours, cells were […]
collected and washed with PBS. Cell pellets were re-suspended in cold cell lysis buffer (radio-immunoprecipitation assay buffer) supplemented with 1% phosphatase inhibitor cocktail 2 and 3 (Sigma) and 10% protease inhibitor (Roche). Cells were lysed for 30 minutes on ice.
Protein concentration was then determined by BCA assay. Lysates were boiled with laemmli sample buffer [Tris-HCL 50 mM (pH 6.7), glycerol 10% (w/v), sodium dodecyl sulphate 2% (w/v), bromophenol blue 0.02% (w/v)] containing DTT […] for 10 min. at 90 °C. Also 20 µg of lysates were resolved by sodium dodecyl sulphate polyacrylamide gel electrophoresis (SDS - PAGE) and transferred onto PVDF transfer membrane (EMD Millipore). Membranes were blocked with 5% non-fat milk and probed with primary antibodies for ERK and phospho-ERK (Cell Signaling). Anti-GAPDH was used as a loading control (Calbiochem).

melting point [°C] | IC50 (HL-60 cells) [µM] | Compound | effect on ERK phosphorylation (Ras/BRAF pathway) [1]
158 to 160 | – | N=C(N)Nc1ccc(Oc2cccc(NC(=N)Nc3ccc(F)c(F)c3)c2)cc1 (as salt: hydrochloride) [Compound 6, 1-(3:4-Di-fluorophenyl)-2-(3-(4-guanidinophenoxy)phenyl)guanidine dihydrochloride] | –
– | 11.6 ± 0.27 | N=C(N)Nc1ccc(Oc2cccc(NC(=N)Nc3ccc(F)c(F)c3)c2)cn1 [Compound 49, 1-(3,4-Di-fluorophenyl)-3-(3-((6-guanidinopyridin-3-yl)oxy)phenyl)guanidine dihydrochloride] | –
50 to 52 | 7.5 ± 0.05 | Cl.N=C(N)Nc1ccc(Oc2cccc(Nc3ccc(Cl)cc3)c2)cc1 [Compound 28, 1-(4-(3-((4-Chlorophenyl)amino)phenoxy)phenyl)guanidine hydrochloride] | –
– | 4.07 ± 0.1 | N=C(N)Nc1ccc(Oc2cc(F)cc(Nc3ccc(Cl)c(C(F)(F)F)c3)c2)cc1 [Compound 36, 1-(4-(3-((4-Chloro-3-(trifluormethyl)phenyl)amino)-5-fluorophenoxy)phenyl)guanidine hydrochloride] | –
– | 15.3 ± 1.98 | N=C(N)Nc1ccc(Oc2cccc(N=C(N)Nc3ccc(Br)cc3)c2)cc1 [Compound 8, 1-(4-Bromophenyl)-2-(3-(4-guanidinophenoxy)phenyl)guanidine dihydrochloride] | –
93 to 95 | 4.64 ± 0.83 | Cl.N=C(N)Nc1ccc(Oc2cccc(Nc3cccc(C(F)(F)F)c3)c2)cc1 [Compound 29, 1-(4-(3-((3-(Trifluoromethyl)phenyl)amino)phenoxy)phenyl)guanidine hydrochloride] | –
– | > 100 | N=C(N)Nc1ccc(Oc2cccc(NC(=N)Nc3ccc(F)c(F)c3)c2)cc1 [Compound 6, 1-(3:4-Di-fluorophenyl)-2-(3-(4-guanidinophenoxy)phenyl)guanidine dihydrochloride] | –
104 to 106 | 3.23 ± 0.36 | Cl.N=C(N)Nc1ccc(Oc2cccc(Nc3cccc(S(F)(F)(F)(F)F)c3)c2)cc1 [Compound 30, 1-(4-(3-((3-(Pentafluorosulfanyl)phenyl)amino)phenoxy)phenyl)guanidine hydrochloride] | –
124 to 126 | 9.14 ± 0.69 | NS(=O)(=O)Nc1ccc(Oc2cccc(Nc3ccc(Cl)c(C(F)(F)F)c3)c2)cc1 [Compound 75] | –
– | 1.53 ± 0.23 | Cl.Cl.N=C(N)Nc1ccc(Oc2cccc(NC(=N)Nc3ccc(Br)c(C(F)(F)F)c3)c2)cn1 [Compound 52, 1-(4-Bromo-3-(trifluoromethyl)phenyl)-3-(3-((6-guanidinopyridin-3-yl)oxy)phenyl) guanidine dihydrochloride] | inhibiting ERK phosphorylation; also recorded: abrogates ERK activation
92 to 94 | – | N=C(N)Nc1ccc(Oc2cc(F)cc(Nc3ccc(Cl)c(C(F)(F)F)c3)c2)cc1 (as salt: hydrochloride) [Compound 36, 1-(4-(3-((4-Chloro-3-(trifluormethyl)phenyl)amino)-5-fluorophenoxy)phenyl)guanidine hydrochloride] | –
– | > 100 | N=C(N)Nc1ccc(Oc2cccc(N=C(N)Nc3ccc(F)cc3)c2)cc1 [Compound 5, 1-(4-Fluorophenyl)-2-(3-(4-guanidinophenoxy)phenyl)guanidine dihydrochloride] | –
– | 9.37 ± 0.54 | N=C(N)Nc1ccc(Oc2cccc(NC(=N)Nc3ccc(Br)cc3)c2)cn1 [Compound 51, 1-(4-Bromophenyl)-3-(3-((6-guanidinopyridin-3-yl)oxy)phenyl)guanidine dihydrochloride] | –
– | 11 ± 0.64 | N=C(N)Nc1cccc(Oc2ccc(N=C(N)Nc3ccc(Br)c(C(F)(F)F)c3)cc2)c1 [Compound 11, 1-(4-Bromo-3-(trifluoromethyl)phenyl)-2-(4-(3-guanidinophenoxy)phenyl)guanidine dihydrochloride] | –
– | 8.63 ± 0.51 | N=C(N)Nc1ccc(Oc2cccc(N=C(N)Nc3ccc(I)cc3F)c2)cc1 [Compound 7, 1-(2-Fluoro-4-iodophenyl)-2-(3-(4-guanidinophenoxy)phenyl)guanidine dihydrochloride] | –
– | 8.33 ± 0.32 | N=C(N)Nc1ccc(Oc2cccc(NC(=N)Nc3ccc(I)cc3F)c2)cn1 [Compound 50, 1-(2-Fluoro-4-iodophenyl)-3-(3-((6-guanidinopyridin-3-yl)oxy)phenyl)guanidine dihydrochloride] | –
– | 2.07 ± 0.33 | Cl.Cl.N=C(N)Nc1ccc(Oc2cccc(N=C(N)Nc3ccc(Br)c(C(F)(F)F)c3)c2)cc1 [Compound 9, 1-(4-Bromo-3-(trifluoromethyl)phenyl)-2-(3-(4-guanidinophenoxy)phenyl)guanidine dihydrochloride] | inhibiting ERK phosphorylation; also recorded: abrogates ERK activation
– | 8.85 ± 0.55 | N=C(N)Nc1cccc(Oc2ccc(N=C(N)Nc3ccc(I)cc3F)cc2)c1 [Compound 10, 1-(2-Fluoro-4-iodophenyl)-2-(4-(3-guanidinophenoxy)phenyl)guanidine dihydrochloride] | –
